Measurements published in publication PMC11353420, “Anti-Inflammatory, Cytotoxic, and Genotoxic Effects of Soybean Oligopeptides Conjugated with Mannose” (Foods, 2024).

Legend:
[1] = SRB cytotoxicity assay, PBMCs; type: cell-based, human; settings: human, peripheral blood mononuclear cells (PBMCs); PBMCs, 800 µg/mL; read-out: % Cell Viability (n = 5)
From the text: (§1) As described by […] et al., human peripheral blood mononuclear cells (PBMCs) and red blood cells (RBCs) were isolated from human blood samples [41]. Human blood samples of healthy subjects obtained from Maharaj Hospital, Chiang Mai, Thailand, were anonymized and kept in a heparinized tube by the laboratory. RBCs were collected and used to determined hemolysis induction by a hemolysis assay. Ficoll-Hypaque solution was used to isolate PBMCs, as described in the manufacturer's instructions. A certificate of exemption by the Research Ethics Committee of the Faculty of Medicine, Chiang Mai University (No. EXEMPTION 8989/2022), was granted. Consent to participate was not applicable as all data were anonymized. All methods were carried out in accordance with relevant guidelines and regulations.

[2] = test system: human peripheral blood mononuclear cells (PBMCs); assay: SRB cytotoxicity assay, PBMCs; type: cell-based; settings: up to 800 µg/mL
From the text: as §1

[3] = test system: NO production in LPS-treated RAW 264.7 macrophages; assay: LPS-induced nitric oxide (NO)/nitrite production, Griess reaction; type: cell-based, murine; settings: 100, 200, 400 µg/mL pretreatment 1 h, LPS 1 µg/mL 24 h
Procedure: To screen the anti-inflammation ability of the compounds, the nitrite level in the cultured medium of the treated cells was determined by the Griess reaction. RAW 264.7 macrophage cells were pretreated with various concentrations of the oligopeptide and its conjugated forms (100, 200, 400 µg/mL) for an hour and then incubated with LPS (1 µg/mL) for further 24 h at 37 °C in a 5% CO2 humidified atmosphere. The culture supernatant was collected for the Griess reagent assay as previous described. The NO production was calculated by comparison with LPS-treated controls.

COX-2 = COX-2 protein level by immunoblotting in LPS-treated RAW 264.7; type: cell-based, murine; settings: 100, 200, 400 µg/mL, LPS 1 µg/mL 24 h
Procedure: RAW 264.7 macrophage cells were pretreated with various concentrations of the oligopeptide and its conjugated forms (100, 200, 400 µg/mL) for an hour and then incubated with LPS (1 µg/mL) for a further 24 h (at 37 °C in a 5% CO2 humidified atmosphere). The cells were then collected to investigate the iNOS and COX-2 protein levels. Cell lysate was prepared to obtain the protein samples. The samples were subjected to 10% sodium dodecyl sulfate polyacrylamide gel electrophoresis (SDS-PAGE). The separated proteins were electrically transferred to a nitrocellulose membrane. The target proteins were probed with specific antibodies, including anti-COX-2 antibody (Cell signaling, Danvers, MA, USA), anti-iNOS antibody (Merck, Rahway, NJ, USA), and anti-β-actin antibody (Sigma, St. Louis, MO, USA). Protein detection was performed using a chemiluminescence reagent (Bio-Rad Laboratories, Watford, UK).

[4] = test system: Salmonella typhimurium strain TA100; assay: Salmonella mutation assay (Ames test), TA100; type: cell-based
Procedure: Overnight bacterial cultures were mixed with various doses of test compounds with (+S9) or without (−S9) and incubated at 37 °C for 20 min. The top agar was added and then poured onto a plate of minimal glucose agar. The plates were incubated at 37 °C for 48 h. The number of revertant colonies was counted and the mutagenic index (MI) was calculated. 2-aminoanthracene (2-AA) and 2-(2-furyl)-3-(5-nitro-2-furyl)-acrylamide (AF-2) were used as positive mutagens in the presence and absence of S9.

Drosophila melanogaster = assay: Somatic mutation and recombination test (SMART, wing spot test); type: in vivo; design: key to Statistical diagnosis vs DI (negative control), Small Single (1–2 Cells) / Statistical diagnosis vs DI (negative control), Large Single (>2 Cells) / Statistical diagnosis vs DI (negative control), Twin / Statistical diagnosis vs DI (negative control), Total Spots: + = positive; − = negative; i = inconclusive; settings: for Frequency of Mutant Spots per Individual (Number of Spots), Large Single (>2 Cells) / Frequency of Mutant Spots per Individual (Number of Spots), Small Single (1–2 Cells) / Frequency of Mutant Spots per Individual (Number of Spots), Total Spots / Frequency of Mutant Spots per Individual (Number of Spots), Twin: 40 wings
Procedure: In brief, two strains of fruit flies, including mwh/mwh and ORR; flr^3/In(3LR) TM3, ri p^p sep l(3)89Aa bx^34e e Bd^S, were mated. […] After hatching, forty round wings were collected and analyzed for mutant spots (single, large, and twin spots). The statistical analysis for the wing spot test was performed as previously described. The Drosophila study was approved by the Institute of Nutrition—Mahidol University Institutional Animal Care and Use Committee (INMU-IACUC) (COA. No. INMU-IACUC 2023/01).

For `OC[C@H]1OC(O)[C@@H](O)[C@@H](O)[C@@H]1O` (stereo partly drawn) [Man, D-mannose], the viability at 48 h, 800 µg/mL [1] was 106 ± 13.3%, the “toxic effects to hPBMCs” value [2] was “did not show any toxic effects” and the “inhibition of LPS-induced NO production” value [3] was “did not inhibit”. For the same molecule, the “effect on COX-2 protein level” value (COX-2) was “did not affect”, the “His^+ Revertant Colonies per Plate” value ([4]; TA100, +S9, 0.04 mg per plate) was 127.5 ± 2.5 and the “His^+ Revertant Colonies per Plate” value ([4]; TA100, +S9, 0.2 mg per plate) was 140.3 ± 2.3. The “His^+ Revertant Colonies per Plate” value ([4]; TA100, +S9, 1 mg per plate) was 139.0 ± 0.7, the “His^+ Revertant Colonies per Plate” value ([4]; TA100, +S9, 5 mg per plate) was 138.5 ± 4.2 and the mutagenicity ([4]; TA100, presence and absence of the S9 mix) was “did not cause any mutagenicity”. The “His^+ Revertant Colonies per Plate” value ([4]; TA100, −S9, 0.04 mg per plate) was 135.2 ± 5.2, the “His^+ Revertant Colonies per Plate” value ([4]; TA100, −S9, 0.2 mg per plate) was 137.5 ± 4.5 and the “His^+ Revertant Colonies per Plate” value ([4]; TA100, −S9, 1 mg per plate) was 135.2 ± 4.5. The “His^+ Revertant Colonies per Plate” value ([4]; TA100, −S9, 5 mg per plate) was 129.7 ± 4.7, the “Statistical diagnosis vs DI (negative control), Large Single (>2 Cells)” value (shortened to “Statistical diagnosis vs DI … (>2 Cells)”) (Drosophila melanogaster; 62.5 µg/mL) was “i” and the “Statistical diagnosis vs DI (negative control), Small Single (1–2 Cells)” value (“Statistical diagnosis vs DI … (1–2 Cells)” below) (Drosophila melanogaster; 62.5 µg/mL) was “−”. For the same molecule, the “Statistical diagnosis vs DI (negative control), Twin” value (shortened to “Statistical diagnosis vs DI … Twin”) (Drosophila melanogaster; 62.5 µg/mL) was “−”, the “Frequency of Mutant Spots per Individual (Number of Spots), Large Single (>2 Cells)” value (Drosophila melanogaster; 62.5 µg/mL) was 0.03 (1) and the “Frequency of Mutant Spots per Individual (Number of Spots), Small Single (1–2 Cells)” value (Drosophila melanogaster; 62.5 µg/mL) was 0.40 (16). The “Frequency of Mutant Spots per Individual (Number of Spots), Total Spots” value (Drosophila melanogaster; 62.5 µg/mL) was 0.43 (17), the “Frequency of Mutant Spots per Individual (Number of Spots), Twin” value (Drosophila melanogaster; 62.5 µg/mL) was 0.00 (0) and the “Statistical diagnosis vs DI … (>2 Cells)” value (Drosophila melanogaster; 125 µg/mL) was “i”. For the same molecule, the “Statistical diagnosis vs DI … (1–2 Cells)” value (Drosophila melanogaster; 125 µg/mL) was “−”, the “Statistical diagnosis vs DI (negative control), Total Spots” value (“Statistical diagnosis vs DI … Total Spots” below) (Drosophila melanogaster; 125 µg/mL) was “−” and the “Statistical diagnosis vs DI … Twin” value (Drosophila melanogaster; 125 µg/mL) was “−”. The “Frequency of Mutant Spots per Individual (Number of Spots), Large Single (>2 Cells)” value (Drosophila melanogaster; 125 µg/mL) was 0.03 (1), the “Frequency of Mutant Spots per Individual (Number of Spots), Small Single (1–2 Cells)” value (Drosophila melanogaster; 125 µg/mL) was 0.50 (20) and the “Frequency of Mutant Spots per Individual (Number of Spots), Total Spots” value (Drosophila melanogaster; 125 µg/mL) was 0.53 (21). For the same molecule, the “Frequency of Mutant Spots per Individual (Number of Spots), Twin” value (Drosophila melanogaster; 125 µg/mL) was 0.00 (0), the “Statistical diagnosis vs DI … (>2 Cells)” value (Drosophila melanogaster; 250 µg/mL) was “i” and the “Statistical diagnosis vs DI … (1–2 Cells)” value (Drosophila melanogaster; 250 µg/mL) was “−”. For the same molecule, the “Statistical diagnosis vs DI … Total Spots” value (Drosophila melanogaster; 250 µg/mL) was “−”, the “Statistical diagnosis vs DI … Twin” value (Drosophila melanogaster; 250 µg/mL) was “−” and the “Frequency of Mutant Spots per Individual (Number of Spots), Large Single (>2 Cells)” value (Drosophila melanogaster; 250 µg/mL) was 0.03 (1). For the same molecule, the “Frequency of Mutant Spots per Individual (Number of Spots), Small Single (1–2 Cells)” value (Drosophila melanogaster; 250 µg/mL) was 0.43 (17), the “Frequency of Mutant Spots per Individual (Number of Spots), Total Spots” value (Drosophila melanogaster; 250 µg/mL) was 0.45 (18) and the “Frequency of Mutant Spots per Individual (Number of Spots), Twin” value (Drosophila melanogaster; 250 µg/mL) was 0.00 (0). The “Statistical diagnosis vs DI … (>2 Cells)” value (Drosophila melanogaster; 500 µg/mL) was “i”, the “Statistical diagnosis vs DI … (1–2 Cells)” value (Drosophila melanogaster; 500 µg/mL) was “−” and the “Statistical diagnosis vs DI … Total Spots” value (Drosophila melanogaster; 500 µg/mL) was “−”. For the same molecule, the “Statistical diagnosis vs DI … Twin” value (Drosophila melanogaster; 500 µg/mL) was “−”, the “Frequency of Mutant Spots per Individual (Number of Spots), Large Single (>2 Cells)” value (Drosophila melanogaster; 500 µg/mL) was 0.03 (1) and the “Frequency of Mutant Spots per Individual (Number of Spots), Small Single (1–2 Cells)” value (Drosophila melanogaster; 500 µg/mL) was 0.25 (10). For the same molecule, the “Frequency of Mutant Spots per Individual (Number of Spots), Total Spots” value (Drosophila melanogaster; 500 µg/mL) was 0.28 (11), the “Frequency of Mutant Spots per Individual (Number of Spots), Twin” value (Drosophila melanogaster; 500 µg/mL) was 0.00 (0) and the “Statistical diagnosis vs DI … (>2 Cells)” value (Drosophila melanogaster; 1000 µg/mL) was “i”. The “Statistical diagnosis vs DI … (1–2 Cells)” value (Drosophila melanogaster; 1000 µg/mL) was “−”, the “Statistical diagnosis vs DI … Total Spots” value (Drosophila melanogaster; 1000 µg/mL) was “−” and the “Statistical diagnosis vs DI … Twin” value (Drosophila melanogaster; 1000 µg/mL) was “−”. The “Frequency of Mutant Spots per Individual (Number of Spots), Large Single (>2 Cells)” value (Drosophila melanogaster; 1000 µg/mL) was 0.03 (1), the “Frequency of Mutant Spots per Individual (Number of Spots), Small Single (1–2 Cells)” value (Drosophila melanogaster; 1000 µg/mL) was 0.25 (10) and the “Frequency of Mutant Spots per Individual (Number of Spots), Total Spots” value (Drosophila melanogaster; 1000 µg/mL) was 0.28 (11). The “Frequency of Mutant Spots per Individual (Number of Spots), Twin” value (Drosophila melanogaster; 1000 µg/mL) was 0.00 (0), the “Statistical diagnosis vs DI … (>2 Cells)” value (Drosophila melanogaster; 2000 µg/mL) was “−” and the “Statistical diagnosis vs DI … (1–2 Cells)” value (Drosophila melanogaster; 2000 µg/mL) was “−”. For the same molecule, the “Statistical diagnosis vs DI … Total Spots” value (Drosophila melanogaster; 2000 µg/mL) was “−”, the “Statistical diagnosis vs DI … Twin” value (Drosophila melanogaster; 2000 µg/mL) was “−” and the “Frequency of Mutant Spots per Individual (Number of Spots), Large Single (>2 Cells)” value (Drosophila melanogaster; 2000 µg/mL) was 0.00 (0). For the same molecule, the “Frequency of Mutant Spots per Individual (Number of Spots), Small Single (1–2 Cells)” value (Drosophila melanogaster; 2000 µg/mL) was 0.23 (9), the “Frequency of Mutant Spots per Individual (Number of Spots), Total Spots” value (Drosophila melanogaster; 2000 µg/mL) was 0.23 (9) and the “Frequency of Mutant Spots per Individual (Number of Spots), Twin” value (Drosophila melanogaster; 2000 µg/mL) was 0.00 (0). For the same molecule, the “Statistical diagnosis vs DI … (>2 Cells)” value (Drosophila melanogaster; 5000 µg/mL) was “−”, the “Statistical diagnosis vs DI … (1–2 Cells)” value (Drosophila melanogaster; 5000 µg/mL) was “−” and the “Statistical diagnosis vs DI … Total Spots” value (Drosophila melanogaster; 5000 µg/mL) was “−”. For the same molecule, the “Statistical diagnosis vs DI … Twin” value (Drosophila melanogaster; 5000 µg/mL) was “−”, the “Frequency of Mutant Spots per Individual (Number of Spots), Large Single (>2 Cells)” value (Drosophila melanogaster; 5000 µg/mL) was 0.00 (0) and the “Frequency of Mutant Spots per Individual (Number of Spots), Small Single (1–2 Cells)” value (Drosophila melanogaster; 5000 µg/mL) was 0.18 (7). The “Frequency of Mutant Spots per Individual (Number of Spots), Total Spots” value (Drosophila melanogaster; 5000 µg/mL) was 0.18 (7), the “Frequency of Mutant Spots per Individual (Number of Spots), Twin” value (Drosophila melanogaster; 5000 µg/mL) was 0.00 (0) and the “DNA mutations / genome safety” value (Drosophila melanogaster; all doses, up to 5000 µg/mL) was “did not trigger DNA mutations”.
